According to patent US11242537B2, “Method for improving sensitivity of plant to gibberellin inhibitor and use thereof” (CHINA AGRICULTURAL UNIVERSITY, priority 2017, dated 2022):

What was measured:
[1] = system: transgenic zmcps-ko line with the HRP, line No. 614; experiment: Sensitivity of transgenic zmcps-ko line with the HRP to DPC, line No. 614; type: in vivo, maize; conditions: 500 ppm (5 mM) DPC spray
From the text: (§1) The GV3101-pSuper1300-HRP of Example 1 was transformed into the ZmCPSKO maize embryos of step 1.1 by using the Agrobacterium to infect the maize immature embryos, and positive transgenic maize with the HRP was obtained by screening, and the transgenic maize with the HRP contained the target gene HRP. The GV3101-pSuper1300-ZmCPS and GV3101-pSuper1300 were used as controls, and the ZmCPS control maize and empty vector control maize were obtained, respectively.
(§2) The WT and transgenic plants were sprayed with DPC during jointing stage to test their DPC sensitivity: the whole plant was sprayed with 500 ppm […] DPC when the maize was grown to 7 leaf expansion phase and 12 leaf expansion phase. Plant height and ear height were measured 2 weeks after treatment and after tasseling.

pSuper1300::ga1-1 = experiment: Effect of DPC on plant height (step 4.1), empty vector pSuper1300::ga1-1; type: in vivo, Arabidopsis thaliana; conditions: for Plant height: 12 days; for Plant height reduction rate: relative to 0 mg/L
Method: (§3) In the following examples, the growth conditions of Arabidopsis thaliana are: culturing in a growth chamber with a photoperiod of 16 h light/8 h dark, a light intensity of 60 μmol/m^2/s, a humidity of 60%-70%, and a temperature of 22° C.
(§4) The experiment was repeated three times, and the specific steps of each repeated experiment were as follows:
(§5) Thirty homozygous line plants of the HRP::ga1-1 of step 2 were randomly selected and randomly divided into three groups, ten plants in each group. On the 33rd day of sowing (the day of sowing was recorded as the first day of sowing), the plants of these three groups were treated as follows, respectively one group was sprayed with water (i.e., 0 mg/L DPC solution) and cultured for 12 days to obtain untreated HRP::ga1-1; one group was sprayed with 30 mg/L DPC solution and cultured for 12 days to obtain 30 mg/L DPC-treated HRP::ga1-1; the last group was sprayed with 500 mg/L aqueous DPC solution and cultured for 12 days to obtain 500 mg/L DPC-treated HRP::ga1-1.
(§6) According to the above method, the homozygous line plants of the HRP::ga1-1 were replaced with the homozygous line plants of the HRP::ga1-5, the homozygous line plants of the ZmCPS::ga1-1, the homozygous line plants of the ZmCPS::ga1-5, the homozygous line plants of the PsSuper1300::ga1-1 and the homozygous line plants of the PsSuper1300::ga1-5 respectively, the other steps were unchanged, and untreated HRP::ga1-5, 30 mg/L DPC-treated HRP::ga1-5, 500 mg/L DPC-treated HRP::ga1-5, untreated ZmCPS::ga1-1, 30 mg/L DPC-treated ZmCPS::ga1-1, 500 mg/L DPC-treated ZmCPS::ga1-1, untreated ZmCPS::ga1-5, 30 mg/L DPC-treated ZmCPS::ga1-5, 500 mg/L DPC-treated ZmCPS::ga1-5, untreated PsSuper1300::ga1-1, 30 mg/L DPC-treated PsSuper1300::ga1-1, 500 mg/L DPC-treated PsSuper1300::ga1-1, untreated PsSuper1300::ga1-5, 30 mg/L DPC-treated PsSuper1300::ga1-5 and 500 mg/L DPC-treated PsSuper1300::ga1-5 were obtained, respectively.
(§7) The plant heights of the above Arabidopsis thaliana before the treatment (FIG. 1) and after different treatments (FIG. 2 and Table 2) were measured.

[2] = system: transgenic zmcps-ko line with the HRP, line No. 623; experiment: Sensitivity of transgenic zmcps-ko line with the HRP to DPC, line No. 623; type: in vivo, maize; conditions: 500 ppm (5 mM) DPC spray
From the text: as §1, §2

ZmCPS::ga1-1 = experiment: Effect of DPC on plant height (step 4.1), ZmCPS::ga1-1; type: in vivo, Arabidopsis thaliana; conditions: for Plant height: 12 days; for Plant height reduction rate: relative to 0 mg/L
Method: as §3, §4, §5, §6, §7

[3] = system: transgenic zmcps-ko line with the HRP, line No. 443; experiment: Sensitivity of transgenic zmcps-ko line with the HRP to DPC, line No. 443; type: in vivo, maize
From the text: as §1, §2

HRP::ga1-5 = experiment: Effects of different concentrations of DPC on plant height (step 4.2), HRP::ga1-5; type: in vivo, Arabidopsis thaliana
Method: as §3, §4
(§8) Seventy homozygous line plants of the HRP::ga1-1 of step 2 were randomly selected and randomly divided into seven groups, ten plants in each group. On the 33rd day of sowing (the day of sowing was recorded as the first day of sowing), the plants of these seven groups were treated as follows, respectively: one group was sprayed with water (i.e., 0 mg/L aqueous DPC solution) and cultured for 12 days to obtain untreated HRP::ga1-1; one group was sprayed with 30 mg/L aqueous DPC solution and cultured for 12 days to obtain 30 mg/L DPC-treated HRP::ga1-1; one group was sprayed with 50 mg/L aqueous DPC solution and cultured for 12 days to obtain 50 mg/L DPC-treated HRP::ga1-1; one group was sprayed with 100 mg/L aqueous DPC solution and cultured for 12 days to obtain 100 mg/L DPC-treated HRP::ga1-1; one group was sprayed with 300 mg/L aqueous DPC solution and cultured for 12 days to obtain 300 mg/L DPC-treated HRP::ga1-1; one group was sprayed with 500 mg/L aqueous DPC solution and cultured for 12 days to obtain 500 mg/L DPC-treated HRP::ga1-1; one group was sprayed with 1000 mg/L aqueous DPC solution and cultured for 12 days to obtain 1000 mg/L DPC-treated HRP::ga1-1.
According to the above method, the homozygous line plant of the HRP::ga1-1 was replaced with the pure homozygous line plant of the HRP::ga1-5, and the other steps were unchanged to obtain untreated HRP::ga1-5, 30 mg/L DPC-treated HRP::ga1-5, 50 mg/L DPC-treated HRP::ga1-5, 100 mg/L DPC-treated HRP::ga1-5, 300 mg/L DPC-treated HRP::ga1-5, 500 mg/L DPC-treated HRP::ga1-5 and 1000 mg/L DPC-treated HRP::ga1-5, respectively.
(§9) The plant heights of the differently treated Arabidopsis thaliana were measured respectively (FIG. 3), and the average plant heights are shown in Table 3.

HRP::ga1-1 = experiment: Effects of different concentrations of DPC on plant height (step 4.2), HRP::ga1-1; type: in vivo, Arabidopsis thaliana
Method: as §3, §4, §8, §9

ga1-1 = experiment: Effect of DPC on plant height (step 4.1), mutant ga1-1; type: in vivo, Arabidopsis thaliana; conditions: for Plant height: 12 days; for Plant height reduction rate: relative to 0 mg/L
Method: as §3, §4
(§10) When the ga1-1 was cultured to the 33rd day of sowing (the day of sowing was recorded as the first day of sowing), 30 plants were taken and randomly divided into three groups, ten plants in each group and the plants of these three groups were treated as follows, respectively: one group was sprayed with 0 mg/L DPC solution and cultured for 12 days to obtain untreated ga1-1; one group was sprayed with 30 mg/L aqueous DPC solution and cultured for 12 days to obtain 30 mg/L DPC-treated ga1-1; the last group was sprayed with 500 mg/L DPC solution and cultured for 12 days to obtain 500 mg/L DPC-treated ga1-1.
as §7

ga1-5 = experiment: Effect of DPC on plant height (step 4.1), mutant ga1-5; type: in vivo, Arabidopsis thaliana; conditions: for Plant height: 12 days; for Plant height reduction rate: relative to 0 mg/L
Method: as §3, §4, §10
According to the above method, the ga1-1 was replaced with the ga1-5, the other steps were unchanged, and untreated ga1-5, 30 mg/L DPC-treated ga1-5, and 500 mg/L DPC-treated ga1-5 were obtained, respectively.
as §7

[4] = line No. 443, 500 ppm (5 mM) DPC spray
[5] = 30 mg/L DPC spray, 12 days (step 4.2)
[6] = 500 mg/L DPC spray, 12 days (step 4.2)

C[N+]1(C)CCCCC1.[Cl-] [DPC, 1,1-dimethylpiperidinium chloride]
Plant height at tasseling stage [1]: 197.9 | Plant height (pSuper1300::ga1-1; 30 mg/L DPC spray): 4.33 ± 0.27 cm | Plant height reduction rate (pSuper1300::ga1-1; 30 mg/L DPC): 4.84% | Plant height (pSuper1300::ga1-1; 500 mg/L DPC spray): 3.98 ± 0.17 cm | Plant height reduction rate (pSuper1300::ga1-1; 500 mg/L DPC): 12.53% | Ear height [2]: 75.2 | Plant height at 2 weeks after treatment [2]: 133.5 | Plant height at tasseling stage [2]: 182.8 | Plant height (ZmCPS::ga1-1; 30 mg/L DPC spray): 16.52 ± 0.31 cm | Plant height reduction rate (ZmCPS::ga1-1; 30 mg/L DPC): −0.12% | Plant height (ZmCPS::ga1-1; 500 mg/L DPC spray): 16.45 ± 0.21 cm | Plant height reduction rate (ZmCPS::ga1-1; 500 mg/L DPC): 0.30% | Effect of DPC on plant height (in words) (ZmCPS::ga1-1; 30 and 500 mg/L DPC): no effect | Sensitivity of the plant to DPC (in words) ([3]; complementary plant, line No. 443 (FIG. 5), 500 ppm (5 mM) DPC spray): sensitive | Ear height [3, 4]: 80.0 | Plant height at tasseling stage [3, 4]: 187.9 | Plant height at 2 weeks after treatment ([3]; line No. 443, whole plant sprayed with 500 ppm (5 mM) DPC at 7 and 12 leaf expansion phase): 128.9 | Plant height (average) (HRP::ga1-5; [5]): 11.93 cm | Plant height (average) (HRP::ga1-5; 50 mg/L DPC spray, 12 days): 9.843 cm | Plant height (average) (HRP::ga1-5; 100 mg/L DPC spray, 12 days): 10.14 cm | Plant height (average) (HRP::ga1-5; 300 mg/L DPC spray, 12 days): 9.957 cm | Plant height (average) (HRP::ga1-5; [6]): 9.857 cm | Plant height (average) (HRP::ga1-5; 1000 mg/L DPC spray, 12 days): 7.357 cm | Plant height (average) (HRP::ga1-1; [5]): 9.714 cm | Plant height (average) (HRP::ga1-1; 50 mg/L DPC spray, 12 days): 9.314 cm | Plant height (average) (HRP::ga1-1; 100 mg/L DPC spray, 12 days): 9.343 cm | Plant height (average) (HRP::ga1-1; 300 mg/L DPC spray, 12 days): 8.857 cm | Plant height (average) (HRP::ga1-1; [6]): 8.586 cm | Plant height (average) (HRP::ga1-1; 1000 mg/L DPC spray, 12 days): 7.243 cm | Plant height (ga1-1; 30 mg/L DPC spray): 4.13 ± 0.25 cm | Plant height reduction rate (ga1-1; 30 mg/L DPC): 13.60% | Plant height (ga1-1; 500 mg/L DPC spray): 3.95 ± 0.10 cm | Plant height reduction rate (ga1-1; 500 mg/L DPC): 17.36% | Plant height (ga1-5; 30 mg/L DPC spray): 6.55 ± 0.10 cm | Plant height reduction rate (ga1-5; 30 mg/L DPC): 6.83% | Plant height (ga1-5; 500 mg/L DPC spray): 6.40 ± 0.12 cm | Plant height reduction rate (ga1-5; 500 mg/L DPC): 8.96%
